From PubChem BioAssay (NCI)
Where “and” joins values, the source holds several entries; their conditions need not be identical. Equal values may be shown once.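 Dose response: 5 concentrations. Exposure: 48 h. Format: 96-well plates. Endpoint: linear interpolation; highest concentration if not reached. GI50 = concentration required for 50% inhibition of growth. TGI: concentration producing complete growth inhibition.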

Experiments:
Assay in all cases: NCI-60 cell line screen, 48 h
[1] = test system: NCI-H226 lung
[2] = test system: SF-268 CNS
[3] = test system: U251 CNS
[4] = test system: HCC-2998 colon
[5] = test system: COLO 205 colon
[6] = test system: SK-MEL-5 melanoma
[7] = test system: HT29 colon
[8] = test system: SW-620 colon
[9] = test system: HL-60(TB) leukemia
[10] = test system: MALME-3M melanoma
[11] = test system: BT-549 breast
[12] = test system: DU-145 prostate
[13] = test system: HS 578T breast
[14] = test system: MDA-MB-231 breast

| SMILES | TGI [1] [µM] | TGI [2] [µM] | TGI [3] [µM] | TGI [4] | TGI [5] | TGI [6] [µM] | TGI [7] [µM] | TGI [8] [µM] | TGI [9] [µM] | TGI [10] [µM] | GI50 [1] | GI50 [4] | GI50 [7] [µM] | GI50 [8] [µM] | GI50 [10] | TGI [11] [µM] | TGI [12] [µM] | TGI [13] [µM] | TGI [14] [µM] |
| --- | --- | --- | --- | --- | --- | --- | --- | --- | --- | --- | --- | --- | --- | --- | --- | --- | --- | --- | --- |
| Cc1nsc2cc(Cl)n(C)c(=O)c12 | > 100 | > 100 | > 100 | > 100 µM | > 100 µM | > 100 | > 100 | > 100 | > 100 | > 100 | – | – | – | – | – | – | – | – | – |
| COc1cc(CNc2ccc(C)cc2)cc(OC)c1OC | – | > 90.3 | 1.2 | 1.16 µM and 2.48 µM | 0.385 µM and 1.11 µM | > 100 | 0.852 | – | – | > 100 | 0.284 µM and 0.72 µM | 0.124 µM and 0.365 µM | 0.156 | 0.203 | 0.276 µM and 0.658 µM | – | – | – | – |
| NC(N)=N/N=C/c1c(Cl)nc2n1CCS2 | > 100 | > 100 | > 100 | > 100 µM | > 100 µM | – | > 100 | > 100 | > 100 | > 100 | – | – | – | – | – | > 100 | > 100 | > 100 | – |
| CCOC1OC(CO[Si](C)(C)C(C)(C)C)C(O)CC1n1ccc(=O)[nH]c1=O (configuration not stated) | > 100 | > 100 | > 100 | > 100 µM | > 100 µM | > 100 | > 100 | 52 | – | > 100 | – | – | – | – | – | > 100 | > 100 | > 100 | > 100 |
| C=Cc1c(-c2ccccc2)cnc2[nH]c3ccccc3c12 | – | > 50 | > 50 | > 50 µM | > 50 µM | > 50 | > 50 | > 50 | > 50 | > 50 | – | – | – | – | – | – | – | – | – |
| O=C(CC(=O)n1nc(-c2ccccc2)c(N=Nc2ccc([N+](=O)[O-])cc2)c1-c1ccccc1)Nc1ccc(Cl)cc1 | 70 | > 100 | 63.1 | 91.4 µM | 34.9 µM | 22.3 | 58.5 | > 100 | 70.4 | > 100 | – | – | – | – | – | – | – | – | – |
| CC(C)(C)c1cc(C(C)(C)C)c(SSc2c(C(C)(C)C)cc(C(C)(C)C)c(O)c2O)c(O)c1O | 35 | 24.7 | 22.2 | – | 27.5 µM | 24 | 31.5 | 24 | 14.6 | 36 | – | – | – | – | – | 28.3 | – | > 100 | 28 |
| CCCCCCCCCCCC(=O)OCC(O)CO (configuration not stated) | > 100 | > 100 | > 100 | – | > 100 µM | > 100 | > 100 | > 100 | 42.3 | – | – | – | – | – | – | > 100 | > 100 | > 100 | > 100 |
| COc1ccc2[nH]c(=O)cc(C)c2c1[N+](=O)[O-] | > 100 | > 100 | > 100 | > 100 µM | > 100 µM | > 100 | > 100 | > 100 | > 100 | > 100 | – | – | – | – | – | – | – | – | – |
| COC(=O)C1=CCC[C@H]2[C@@]1(COC(C)=O)CC[C@@H](C)[C@]2(C)CC(=O)c1ccoc1 | > 50 | > 50 | > 50 | 37.5 µM | 27.3 µM | 16.9 | > 50 | > 50 | 24.5 | – | – | – | – | – | – | 31.3 | > 50 | > 50 | > 50 |
| CC[n+]1c(/C=C/c2cc(C(=O)OC)n3c2sc2ccccc23)sc2ccccc21 | 45.1 | 42.2 | – | 27.8 µM | 65.8 µM | 28.9 | 33 | – | 98.4 | 33 | – | – | – | – | – | – | – | – | – |
| CCOP(=O)(OCC)/C(C#N)=C/c1cccn1C | > 100 | > 100 | > 100 | > 100 µM | > 100 µM | > 100 | > 100 | > 100 | – | > 100 | – | – | – | – | – | > 100 | > 100 | > 100 | > 100 |
| Cc1ccc(C(=O)c2[nH]c(NCc3ccccc3)c(C(=S)Nc3ccccc3)c2N)cc1 | 32.3 | 28.8 | 15.6 | 2.65 µM | 18 µM | – | 10.5 | 5.19 | 33.5 | – | – | – | – | – | – | 20.3 | 27 | – | 19.6 |
| CC1=NN(c2nc(N)nc(CCl)n2)C(C)(C)C1 | > 100 | 68 | > 63.3 | 66.1 µM | > 58 µM | > 56 | > 92.7 | > 60.2 | > 24.9 | – | – | – | – | – | – | > 82.5 | > 100 | > 100 | 85.7 |
| COc1cc2c(c(OC)c1OC)[C@@H]1CCCCC[C@@H]1CCC2=O | > 100 | > 100 | > 100 | > 100 µM | > 77.3 µM | > 100 | > 100 | > 100 | > 63.4 | > 100 | – | – | – | – | – | – | – | – | – |
| CC1(C)COC(c2cccc(C(=O)c3ccccc3)c2)=N1 | – | > 100 | > 100 | > 100 µM | > 100 µM | 32.1 | > 100 | > 100 | 58 | > 100 | – | – | – | – | – | – | > 100 | – | > 100 |
| CN(C)Cc1cc(C(=O)/C=C/c2ccc(Cl)cc2Cl)cc(CN(C)C)c1O | 24 | 20 | 15.7 | 20.2 µM | 2.76 µM | 5.66 | 6.91 | 11.3 | 8.67 | 23.5 | – | – | – | – | – | – | 16.7 | 15.8 | 6.53 |
| CCOC(=O)/C(=C\n1c(=O)sc2ccccc21)C(=O)c1ccccc1 | > 100 | > 100 | > 100 | > 100 µM | > 100 µM | > 100 | > 100 | > 100 | > 100 | > 100 | – | – | – | – | – | – | > 100 | > 100 | > 100 |
| COc1ccc(C(=O)c2[nH]c(Nc3cc(C)ccn3)c(C(=S)Nc3ccccc3)c2N)cc1 | 47.3 | 68.2 | 36.4 | 37.4 µM | 41.5 µM | – | 39.4 | 71 | 64 | 30.8 | – | – | – | – | – | 42.5 | > 100 | – | 44.5 |
